Key:
[1] = molecular target: Disintegrin and metalloproteinase domain-containing protein 17 (Mus musculus, UniProt Q9Z0F8); assay: Inhibition of TACE in mouse RAW264.7 cells assessed as inhibition of LPS-stimulated TNFalpha production pretreated for 1 hr followed by LPS stimulation for 4 hrs by ELISA; format: cell-based
[2] = molecular target: T1, Disintegrin and metalloproteinase domain-containing protein 17 (Homo sapiens, UniProt P78536); assay: Inhibition of recombinant TACE catalytic domain (unknown origin) using Abz-LAQAVRSSSR-Dpa as substrate preincubated for 10 mins followed by substrate addition measured after 10 mins by FRET assay
T1 sequence (P78536 whole entry, the tested form may be a part): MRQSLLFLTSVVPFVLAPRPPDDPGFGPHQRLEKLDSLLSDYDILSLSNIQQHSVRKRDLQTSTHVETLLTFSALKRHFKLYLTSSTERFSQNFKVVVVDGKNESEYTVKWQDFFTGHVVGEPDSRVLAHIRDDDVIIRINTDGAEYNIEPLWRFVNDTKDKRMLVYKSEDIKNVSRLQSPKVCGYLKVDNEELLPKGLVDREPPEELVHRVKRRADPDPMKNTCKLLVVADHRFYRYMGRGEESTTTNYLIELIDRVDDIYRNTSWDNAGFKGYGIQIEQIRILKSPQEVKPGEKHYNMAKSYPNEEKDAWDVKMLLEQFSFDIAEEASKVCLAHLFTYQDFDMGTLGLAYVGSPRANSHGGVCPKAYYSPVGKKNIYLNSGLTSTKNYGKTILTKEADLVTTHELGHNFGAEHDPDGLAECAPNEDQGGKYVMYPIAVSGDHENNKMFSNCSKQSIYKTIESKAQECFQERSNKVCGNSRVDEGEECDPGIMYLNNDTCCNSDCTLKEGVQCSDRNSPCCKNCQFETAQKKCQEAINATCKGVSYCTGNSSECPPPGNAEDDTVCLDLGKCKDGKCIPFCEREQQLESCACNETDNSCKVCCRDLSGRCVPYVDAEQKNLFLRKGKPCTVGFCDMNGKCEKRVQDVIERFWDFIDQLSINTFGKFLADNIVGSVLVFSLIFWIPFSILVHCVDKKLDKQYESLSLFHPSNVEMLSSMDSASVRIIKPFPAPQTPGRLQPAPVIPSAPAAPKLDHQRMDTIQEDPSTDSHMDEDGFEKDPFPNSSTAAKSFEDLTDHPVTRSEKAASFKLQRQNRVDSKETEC

[3] = molecular target: T1, Disintegrin and metalloproteinase domain-containing protein 17; assay: Inhibition of recombinant human TACE catalytic domain using Mca-Pro-Leu-Ala-Gln-Ala-Val-Dpa-Arg-Ser-Ser-Ser-Arg-NH2 as substrate after 2 hrs by fluorescence assay

Sequence of Disintegrin and metalloproteinase domain-containing protein 17 (Mus musculus, UniProt Q9Z0F8) (Q9Z0F8 whole entry, the tested form may be a part): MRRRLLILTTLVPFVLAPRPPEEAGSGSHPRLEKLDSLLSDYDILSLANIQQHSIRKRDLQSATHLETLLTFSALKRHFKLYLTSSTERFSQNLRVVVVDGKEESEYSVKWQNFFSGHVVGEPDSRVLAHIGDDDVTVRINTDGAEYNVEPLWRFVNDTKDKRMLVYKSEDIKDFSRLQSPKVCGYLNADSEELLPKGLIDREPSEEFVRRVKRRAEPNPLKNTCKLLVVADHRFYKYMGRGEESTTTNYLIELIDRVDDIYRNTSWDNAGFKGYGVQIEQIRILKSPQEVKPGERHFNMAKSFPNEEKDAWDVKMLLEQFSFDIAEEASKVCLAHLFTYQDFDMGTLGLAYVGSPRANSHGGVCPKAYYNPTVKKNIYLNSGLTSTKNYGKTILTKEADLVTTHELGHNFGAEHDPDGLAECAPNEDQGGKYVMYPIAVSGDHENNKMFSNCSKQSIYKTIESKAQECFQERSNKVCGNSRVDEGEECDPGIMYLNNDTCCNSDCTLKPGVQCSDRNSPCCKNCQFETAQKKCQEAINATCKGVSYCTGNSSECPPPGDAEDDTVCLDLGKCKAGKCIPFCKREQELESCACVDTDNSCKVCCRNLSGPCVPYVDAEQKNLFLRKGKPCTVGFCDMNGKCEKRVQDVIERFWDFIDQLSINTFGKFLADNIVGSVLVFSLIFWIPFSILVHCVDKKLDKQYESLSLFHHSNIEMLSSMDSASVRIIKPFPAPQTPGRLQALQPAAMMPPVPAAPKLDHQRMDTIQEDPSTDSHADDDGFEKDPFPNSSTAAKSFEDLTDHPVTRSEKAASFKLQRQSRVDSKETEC

Row | SMILES | IC50 ([1]; read-out: IC50) [nM] | IC50 ([2]; read-out: pIC50 (converted)) [nM] | IC50 [3] [nM] | other results
1 | CCNC(=O)N1C[C@H](C(=O)NO)[C@H](NS(=O)(=O)c2ccc(OCc3cc(C)nc4ccccc34)cc2)C1 (relative stereo) | 51 | 1.26 |  | 
2 | CC(=O)N1CCN(C(=O)c2ccc(OCc3cc(C)nc4c3CCCC4)cc2)CC1C(=O)NO (centres undefined) |  |  | 760 | 
3 | Cc1cc(COc2ccc(S(=O)(=O)N(C)[C@@H]3[C@@H]4CC[C@@H](C4)[C@@H]3C(=O)NO)cc2)c2ccccc2n1 | 52 | 1 |  | 
4 | Cc1cc(COc2ccc(S(=O)(=O)N3CCCC(C)(C(=O)NO)C3)cc2)c2c(n1)CCCC2 (centres undefined) |  |  | 40 | 
5 | Cc1cc(COc2ccc(S(=O)(=O)N(C)[C@@H]3COC[C@@H]3C(=O)NO)cc2)c2ccccc2n1 (relative stereo) | 930 | 1.26 |  | 
6 | Cc1cc(COc2ccc(S(=O)(=O)N[C@H]3CCN(C(=O)NC(C)(C)C)C[C@H]3C(=O)NO)cc2)c2ccccc2n1 (relative stereo) | 30 |  |  | IC50 ([2]; read-out: IC50): 0.6 nM
7 | Cc1cc(COc2ccc(S(=O)(=O)N(C)[C@H]3[C@@H](C(=O)NO)[C@@H]4CC[C@H]3O4)cc2)c2ccccc2n1 | 10 | 1 |  | 
8 | CNC(=O)N1CC[C@@H](NS(=O)(=O)c2ccc(OCc3cc(C)nc4ccccc34)cc2)[C@@](C)(C(=O)NO)C1 | 1000 | 3.98 |  | 
9 | CC#CCOc1ccc(S(=O)(=O)N2CCN(C(C)=O)C(C(=O)NO)C2)cc1 (centres undefined) |  |  | 1500 | 
10 | CC#CCOc1ccc(S(=O)(=O)N2CCC(C(=O)NO)C2)cc1 (centres undefined) |  |  | > 10000 | 
11 | Cc1cc(COc2ccc(S(=O)(=O)N[C@@H]3CCOC[C@]3(C)C(=O)NO)cc2)c2ccccc2n1 | 1670 |  |  | 
12 | C#CCN1CC[C@@H](NS(=O)(=O)c2ccc(OCc3cc(C)nc4ccccc34)cc2)[C@@](C)(C(=O)NO)C1 | 1000 | 20 |  | 
13 | CC(=O)N1C[C@H](S(=O)(=O)c2ccc(OCc3cc(C)nc4c3CCCC4)cc2)C[C@H]1C(=O)NO |  |  | 3600 | 
14 | CC#CCOc1ccc(S(=O)(=O)[C@@H]2C[C@@H](C(=O)NO)N(C(C)=O)C2)cc1 |  |  | 10000 | 
15 | Cc1cc(COc2ccc(S(=O)(=O)N(C)C3C(C(=O)NO)[C@@H]4CC[C@H]3O4)cc2)c2ccccc2n1 (relative stereo; form 1) | 250 |  |  | IC50 ([2]; read-out: IC50): 43 nM
16 | Cc1cc(COc2ccc(S(=O)(=O)N[C@@H]3CCN(C(=O)OC(C)(C)C)C[C@@H]3C(=O)NO)cc2)c2ccccc2n1 | 460 |  |  | IC50 ([2]; read-out: IC50): 0.5 nM
17 | Cc1cc(COc2ccc(S(=O)(=O)N(C)C3C(C(=O)NO)[C@@H]4CC[C@H]3O4)cc2)c2ccccc2n1 (relative stereo; form 2) | 18 |  |  | IC50 ([2]; read-out: IC50): 2 nM
18 | Cc1cc(COc2ccc(C(=O)N3CCC(C(=O)NO)C3)cc2)c2c(n1)CCCC2 (centres undefined) |  |  | 6500 | 
19 | Cc1cc(COc2ccc(S(=O)(=O)N[C@]3(C)CCCC[C@@H]3C(=O)NO)cc2)c2ccccc2n1 (racemic) | 25 |  |  | IC50 ([2]; read-out: IC50): 0.6 nM
20 | Cc1cc(COc2ccc(S(=O)(=O)N3CCOC(C(=O)NO)C3)cc2)c2ccccc2n1 (centres undefined) |  |  | 180 | 
21 | CC#CCOc1ccc(S(=O)(=O)[C@H]2C[C@@H](C(=O)NO)N(C(C)=O)C2)cc1 |  |  | > 10000 | 
22 | CC(=O)N1CC[C@@H](NS(=O)(=O)c2ccc(OCc3cc(C)nc4ccccc34)cc2)[C@@](C)(C(=O)NO)C1 | 1000 | 6.31 |  | 
23 | CC#CCOc1ccc(C(=O)N2CCC(C(=O)NO)C2)cc1 (centres undefined) |  |  | > 10000 | 

Continued, in another order:

Row | IC50 ([1]; read-out: IC50) [nM] | IC50 ([2]; read-out: pIC50 (converted)) [nM] | IC50 [3] [nM] | SMILES | other results
24 | 20 |  |  | Cc1cc(COc2ccc(S(=O)(=O)N[C@@H]3CN(C=O)C[C@@H]3C(=O)NO)cc2)c2ccccc2n1 (relative stereo) | 
25 | 180 | 3.16 |  | Cc1cc(COc2ccc(S(=O)(=O)NC3CCN(CCO)CC3C(=O)NO)cc2)c2ccccc2n1 (centres undefined) | 
26 | 20 |  |  | CC(=O)N1C[C@H](C(=O)NO)[C@H](NS(=O)(=O)c2ccc(OCc3cc(C)nc4ccccc34)cc2)C1 (relative stereo) | IC50 ([2]; read-out: IC50): 0.6 nM
27 | 93 |  |  | Cc1cc(COc2ccc(S(=O)(=O)N(C)[C@@H]3CCC[C@@H]3C(=O)NO)cc2)c2ccccc2n1 (relative stereo) | IC50 ([2]; read-out: IC50): 0.6 nM
28 | 9 to 11 | 0.631 |  | Cc1cc(COc2ccc(S(=O)(=O)N[C@@H]3CCC[C@@H]3C(=O)NO)cc2)c2ccccc2n1 (relative stereo) | IC50 ([1]; read-out: pIC50 (converted)): 10 nM
29 | 20 | 1 |  | CC(=O)N1CCC(NS(=O)(=O)c2ccc(OCc3cc(C)nc4ccccc34)cc2)C(C(=O)NO)C1 (centres undefined) | 
30 | 202 | 1.26 |  | CC(=O)N1CCC(C(=O)NO)C(NS(=O)(=O)c2ccc(OCc3cc(C)nc4ccccc34)cc2)C1 (centres undefined) | 
31 | 12 | 0.631 |  | Cc1cc(COc2ccc(S(=O)(=O)N[C@@H]3COC[C@@H]3C(=O)NO)cc2)c2ccccc2n1 | 
32 | 19 |  |  | Cc1cc(COc2ccc(S(=O)(=O)N[C@@H]3CCC[C@]3(F)C(=O)NO)cc2)c2ccccc2n1 | IC50 ([2]; read-out: IC50): 0.6 nM
33 | 17 |  |  | Cc1cc(COc2ccc(S(=O)(=O)N[C@@H]3CCOC[C@@H]3C(=O)NO)cc2)c2ccccc2n1 (relative stereo) | 
